Assay results reported in US10760110B2, “Antibiotic testing and screening system” (priority 2017, dated 2020).
Where two headings read alike, the source gives them in different places.

How the values were obtained:
[1] = test system: K. pneumoniae NVT1001 gyrA/parC and gyrA/parC/ramR mutants and revertants; assay: Etest MIC of quinolones, gyrA/parC and gyrA/parC/ramR mutants and their revertants (Table 11); assay type: cell-based; details: Klebsiella pneumoniae
Excerpt: The allelic-exchange method was used to restore the wild-type gene in the K. pneumoniae NVT1001 mutants with constructed chromosome-mediated resistance mechanisms, as described by Tsai et al.^19 Briefly, a DNA fragment of the entire wild-type gene sequence along with flanking regions was amplified from K. pneumoniae NVT1001 using PCR with specific primers. The resulting PCR fragment was digested and then cloned into pUT-KB. For homologous recombination, this plasmid was transformed into E. coli S17-1 λpir^23 via electroporation and mobilized into the K. pneumoniae NVT1001 mutant via conjugation. […] After incubation in 20 mL BHI broth for 6 hours at 37° C. in the absence of kanamycin, the fully grown cultures were spread onto LB agar plates supplemented with 10% sucrose. After the double crossover occurred, the sucrose-resistant and kanamycin-susceptible colonies were selected, and the restoration of the wild-type gene was confirmed via DNA sequencing.
(§1) The MICs of antibiotics were determined using the Etest (Biodisk AB, Sweden) according to the manufacturer's instructions. The MICs from the Etest, which fall between standard two-fold dilutions, were rounded up to the next highest two-fold value. The MICs of ceftazidime and cefotaxime against K. pneumoniae NVT1001 harbouring the pACYC177 plasmid with blaOXA-48 were further determined using a broth microdilution test according to the recommendations of the CLSI,^25 and the results were interpreted according to the breakpoints established by the CLSI in 2017.^25 Meanwhile, due to the lack of CLSI breakpoints in 2016 and 2017, the results for cephalothin were interpreted according to the breakpoints established by the CLSI in 2015,^26 and the results for moxifloxacin were interpreted according to the breakpoints established by the EUCAST in 2017.^27

[2] = test system: K. pneumoniae NVT1001 strains with QnrB, QnrS or AAC(6′)-Ib-cr plasmids; assay: Etest MIC of quinolones, GyrA/ParC mutations, ΔramR and/or QnrB, QnrS or AAC(6′)-Ib-cr (Table 12); assay type: cell-based; details: Klebsiella pneumoniae
Procedure: DNA fragments of the resistance genes along with their flanking regions were amplified from clinical plasmids via PCR with specific primer pairs. The resulting PCR fragments were digested and then cloned into the plasmid pACYC177 or pACYC184. The resulting plasmids were then transformed into K. pneumoniae strain NVT1001 via electroporation. The recombinant bacteria were plated onto LB agar plates containing kanamycin (50 mg/L) or chloramphenicol (50 mg/L), and the presence of the cloned gene was confirmed via PCR and DNA sequencing.
as §1

[3] = S83F/D87N/S80I::F83S/N87D/I80S revertant, read-out: MIC
[4] = S83F/D87N/S80I::I80S revertant, read-out: MIC
[5] = S83F/D87N/S80I::N87D revertant, read-out: MIC
[6] = S83F/D87N/S80I::N87D/I80S revertant, read-out: MIC
[7] = S83I/D87N/S80I::I80S revertant, read-out: MIC
[8] = S83I/D87N/S80I::I83S/N87D/I80S revertant, read-out: MIC
[9] = S83I/D87N/S80I::N87D revertant, read-out: MIC
[10] = S83I/D87N/S80I::N87D/I80S revertant, read-out: MIC
[11] = S83L/D87N/S80I::I80S revertant, read-out: MIC
[12] = S83L/D87N/S80I::L83S/N87D/I80S revertant, read-out: MIC
[13] = S83L/D87N/S80I::N87D revertant, read-out: MIC
[14] = S83L/D87N/S80I::N87D/I80S revertant, read-out: MIC
[15] = S83Y/D87N/S80I::I80S revertant, read-out: MIC
[16] = S83Y/D87N/S80I::N87D revertant, read-out: MIC
[17] = S83Y/D87N/S80I::N87D/I80S revertant, read-out: MIC
[18] = S83Y/D87N/S80I::Y83S/N87D/I80S revertant, read-out: MIC
[19] = ΔramR/S83I/D87N/S80I:: ramR/I83S revertant
[20] = ΔramR/S83I/D87N/S80I:: ramR/I83S/I80S revertant
[21] = ΔramR/S83I/D87N/S80I:: ramR/I83S/N87D revertant
[22] = ΔramR/S83I/D87N/S80I::I83S/N87D/I80S revertant
[23] = ΔramR/S83I/D87N/S80I::N87D revertant
[24] = ΔramR/S83I/D87N/S80I::N87D/I80S revertant
[25] = ΔramR/S83I/D87N/S80I::ramR/I83S/N87D/I80S
[26] = AAC(6′)-Ib-cr on pACYC177, S83I mutant
[27] = AAC(6′)-Ib-cr on pACYC177, S83I/D87N/S80I mutant
[28] = AAC(6′)-Ib-cr on pACYC177, S83I/S80I mutant
[29] = AAC(6′)-Ib-cr on pACYC177, WT (NVT1001), read-out: MIC
[30] = AAC(6′)-Ib-cr on pACYC177, ΔramR mutant
[31] = AAC(6′)-Ib-cr on pACYC177, ΔramR/S83I mutant
[32] = AAC(6′)-Ib-cr on pACYC177, ΔramR/S83I/D87N/S80I mutant
[33] = AAC(6′)-Ib-cr on pACYC177, ΔramR/S83I/S80I mutant
[34] = QnrB on pACYC177, S83I/D87N/S80I mutant
[35] = QnrB on pACYC177, S83I/S80I mutant
[36] = QnrB on pACYC177, WT (NVT1001), read-out: MIC
[37] = QnrB on pACYC177, ΔramR/S83I mutant
[38] = QnrB on pACYC177, ΔramR/S83I/D87N/S80I mutant
[39] = QnrB on pACYC177, ΔramR/S83I/S80I mutant
[40] = QnrS on pACYC177, S83I/D87N/S80I mutant
[41] = QnrS on pACYC177, S83I/S80I mutant
[42] = QnrS on pACYC177, WT (NVT1001), read-out: MIC
[43] = QnrS on pACYC177, ΔramR/S83I mutant
[44] = QnrS on pACYC177, ΔramR/S83I/D87N/S80I mutant
[45] = QnrS on pACYC177, ΔramR/S83I/S80I mutant
[46] = no supplemental plasmid, S83I mutant
[47] = no supplemental plasmid, S83I/D87N/S80I mutant
[48] = no supplemental plasmid, S83I/S80I mutant
[49] = no supplemental plasmid, WT (NVT1001), read-out: MIC
[50] = no supplemental plasmid, ΔramR mutant
[51] = no supplemental plasmid, ΔramR/S83I mutant
[52] = no supplemental plasmid, ΔramR/S83I/D87N/S80I mutant
[53] = no supplemental plasmid, ΔramR/S83I/S80I mutant

`CCn1cc(C(=O)O)c(=O)c2cc(F)c(N3CCNCC3)cc21` [Norfloxacin, norfloxacin] showed an MIC ([1]; S83F/D87N/S80I mutant) of 32 µg/mL, an MIC [1, 3] of 0.25 µg/mL and an MIC [1, 4] of 2 µg/mL. It also gave an MIC [1, 5] of 4 µg/mL, an MIC [1, 6] of 2 µg/mL and an MIC ([1]; S83I/D87N/S80I mutant) of 64 µg/mL. It also gave an MIC [1, 7] of 2 µg/mL, an MIC [1, 8] of 0.25 µg/mL and an MIC [1, 9] of 16 µg/mL. It also gave an MIC [1, 10] of 2 µg/mL, an MIC ([1]; S83L/D87N/S80I mutant) of 64 µg/mL and an MIC [1, 11] of 2 µg/mL. For the same molecule, the MIC [1, 12] was 0.25 µg/mL, the MIC [1, 13] was 8 µg/mL and the MIC [1, 14] was 2 µg/mL. For the same molecule, the MIC ([1]; S83Y/D87N/S80I mutant) was 32 µg/mL, the MIC [1, 15] was 2 µg/mL and the MIC [1, 16] was 4 µg/mL. The MIC [1, 17] was 2 µg/mL, the MIC [1, 18] was 0.25 µg/mL and the MIC ([1]; ΔramR/S83I/D87N/S80I mutant) was > 256 µg/mL. It also gave an MIC [1, 19] of 2 µg/mL, an MIC [1, 20] of 1 µg/mL and an MIC [1, 21] of 0.25 µg/mL. It also gave an MIC [1, 22] of 2 µg/mL, an MIC [1, 23] of 128 µg/mL and an MIC [1, 24] of 8 µg/mL. The MIC [1, 25] was 0.25 µg/mL, the MIC [2, 26] was 8 µg/mL and the MIC [2, 27] was > 256 µg/mL. The MIC [2, 28] was 128 µg/mL, the MIC [2, 29] was 1 µg/mL and the MIC [2, 30] was 8 µg/mL. For the same molecule, the MIC [2, 31] was 128 µg/mL, the MIC [2, 32] was > 256 µg/mL and the MIC [2, 33] was > 256 µg/mL. The MIC ([2]; QnrB on pACYC177, S83I mutant) was 8 µg/mL, the MIC [2, 34] was > 256 µg/mL and the MIC [2, 35] was > 256 µg/mL. The MIC [2, 36] was 2 µg/mL, the MIC ([2]; QnrB on pACYC177, ΔramR mutant) was 16 µg/mL and the MIC [2, 37] was 64 µg/mL. For the same molecule, the MIC [2, 38] was > 256 µg/mL, the MIC [2, 39] was > 256 µg/mL and the MIC ([2]; QnrS on pACYC177, S83I mutant) was 8 µg/mL. For the same molecule, the MIC [2, 40] was 128 µg/mL, the MIC [2, 41] was 64 µg/mL and the MIC [2, 42] was 2 µg/mL. For the same molecule, the MIC ([2]; QnrS on pACYC177, ΔramR mutant) was 32 µg/mL, the MIC [2, 43] was 64 µg/mL and the MIC [2, 44] was > 256 µg/mL. The MIC [2, 45] was > 256 µg/mL, the MIC [2, 46] was 2 µg/mL and the MIC [2, 47] was 64 µg/mL. For the same molecule, the MIC [2, 48] was 16 µg/mL, the MIC [2, 49] was 0.25 µg/mL and the MIC [2, 50] was 2 µg/mL. For the same molecule, the MIC [2, 51] was 8 µg/mL, the MIC [2, 52] was > 256 µg/mL and the MIC [2, 53] was 128 µg/mL.

With `CC1COc2c(N3CCN(C)CC3)c(F)cc3c(=O)c(C(=O)O)cn1c23` (stereo not drawn) [Ofloxacin, ofloxacin] the MIC ([1]; S83F/D87N/S80I mutant) was 16 µg/mL, the MIC [1, 3] was 0.25 µg/mL and the MIC [1, 4] was 2 µg/mL. For the same molecule, the MIC [1, 5] was 4 µg/mL, the MIC [1, 6] was 2 µg/mL and the MIC ([1]; S83I/D87N/S80I mutant) was 32 µg/mL. For the same molecule, the MIC [1, 7] was 2 µg/mL, the MIC [1, 8] was 0.25 µg/mL and the MIC [1, 9] was 8 µg/mL. For the same molecule, the MIC [1, 10] was 2 µg/mL, the MIC ([1]; S83L/D87N/S80I mutant) was 32 µg/mL and the MIC [1, 11] was 2 µg/mL. It also gave an MIC [1, 12] of 0.25 µg/mL, an MIC [1, 13] of 4 µg/mL and an MIC [1, 14] of 2 µg/mL. For the same molecule, the MIC ([1]; S83Y/D87N/S80I mutant) was 16 µg/mL, the MIC [1, 15] was 2 µg/mL and the MIC [1, 16] was 4 µg/mL. The MIC [1, 17] was 2 µg/mL, the MIC [1, 18] was 0.25 µg/mL and the MIC ([1]; ΔramR/S83I/D87N/S80I mutant) was > 32 µg/mL. For the same molecule, the MIC [1, 19] was 1 µg/mL, the MIC [1, 20] was 1 µg/mL and the MIC [1, 21] was 0.25 µg/mL. The MIC [1, 22] was 2 µg/mL, the MIC [1, 23] was > 32 µg/mL and the MIC [1, 24] was > 32 µg/mL. It also gave an MIC [1, 25] of 0.25 µg/mL, an MIC [2, 26] of 4 µg/mL and an MIC [2, 27] of 32 µg/mL. It also gave an MIC [2, 28] of 8 µg/mL, an MIC [2, 29] of 0.25 µg/mL and an MIC [2, 30] of 2 µg/mL. For the same molecule, the MIC [2, 31] was > 32 µg/mL, the MIC [2, 32] was > 32 µg/mL and the MIC [2, 33] was > 32 µg/mL. For the same molecule, the MIC ([2]; QnrB on pACYC177, S83I mutant) was 8 µg/mL, the MIC [2, 34] was > 32 µg/mL and the MIC [2, 35] was > 32 µg/mL. For the same molecule, the MIC [2, 36] was 4 µg/mL, the MIC ([2]; QnrB on pACYC177, ΔramR mutant) was 32 µg/mL and the MIC [2, 37] was > 32 µg/mL. The MIC [2, 38] was > 32 µg/mL, the MIC [2, 39] was > 32 µg/mL and the MIC ([2]; QnrS on pACYC177, S83I mutant) was 8 µg/mL. For the same molecule, the MIC [2, 40] was > 32 µg/mL, the MIC [2, 41] was > 32 µg/mL and the MIC [2, 42] was 4 µg/mL. The MIC ([2]; QnrS on pACYC177, ΔramR mutant) was 16 µg/mL, the MIC [2, 43] was > 32 µg/mL and the MIC [2, 44] was > 32 µg/mL. The MIC [2, 45] was > 32 µg/mL, the MIC [2, 46] was 2 µg/mL and the MIC [2, 47] was 32 µg/mL. For the same molecule, the MIC [2, 48] was 4 µg/mL, the MIC [2, 49] was 0.25 µg/mL and the MIC [2, 50] was 2 µg/mL. The MIC [2, 51] was > 32 µg/mL, the MIC [2, 52] was > 32 µg/mL and the MIC [2, 53] was > 32 µg/mL.
